Data set [1] relates to Leishmania mexicana. Put plainly: Antileishmanial activity against Leishmania mexicana MNYC/BZ/62/M379 promastigotes assessed as parasite viability measured after 1 hr by alamarBlue staining based fluorescence analysis. The data set is classed as functional. As to conditions: MNYC/BZ/62/M379, 1 h, read-out: ED50 (the source's name). Background: The colour change of resazurin is a common sign of viable cells or microbes.

For data set [2], the system named is Leishmania mexicana. Put plainly: Antileishmanial activity against axenic amastigote form of Leishmania mexicana MNYC/BZ/62/M379 assessed as parasite viability measured after 1 hr by alamarBlue staining based fluorescence analysis. The class given is functional. As to conditions: MNYC/BZ/62/M379, 1 h, read-out: ED50 (the source's name).
For data set [3], the system named is Leishmania mexicana. The data set is described as follows: Antileishmanial activity against Leishmania mexicana MNYC/BZ/62/M379 amastigotes infected in mouse RAW264.7 cells assessed as parasite viability measured after 24 hrs by alamarBlue staining based fluorescence analysis. The data set is classed as functional.
Data set [4] is described as follows: Cytotoxicity against mouse RAW264.7 cells measured after 24 hrs by alamarBlue staining based fluorescence analysis. The class given is cell-based. As to conditions: read-out: ED50.

As for `CC(c1ccccc1)N(CC(=O)N(CCCCN)CC(=O)N(CC(=O)N(CC(=O)N(CCCCN)CC(=O)N(CC(=O)N(CC(N)=O)[C@@H](C)c1ccccc1)[C@@H](C)c1ccccc1)Cc1ccc(F)cc1)Cc1ccc(F)cc1)C(=O)CN(C(=O)CN(CCCCN)C(=O)CN(Cc1ccc(F)cc1)C(=O)CN(Cc1ccc(F)cc1)C(=O)CNCCCCN)[C@@H](C)c1ccccc1` (single isomer, unassigned), the values for the EC50 in data set [1] and in data set [2] were 6 µM and 21 µM, respectively. Besides, the ED50 in data set [3] is >5 µM. In addition, the CC50 at 24 h in data set [4] was determined as 5 µM.
Taken in the same sequence, the figures for `CCCCCNCC(=O)N(CC(=O)N(CC(=O)N(CCCCC)CC(=O)N(CC(=O)N(CC(=O)N(CCCCN)CC(=O)N(CC(=O)N(CC(=O)N(CCCCN)CC(=O)N(CC(=O)N(CC(N)=O)[C@@H](C)c1ccccc1)[C@@H](C)c1ccccc1)C(C)c1ccccc1)[C@@H](C)c1ccccc1)C(C)c1ccccc1)[C@@H](C)c1ccccc1)C(C)c1ccccc1)[C@@H](C)c1ccccc1` (single isomer, unassigned) were 11 µM, 16 µM, 1.6 µM and 1.7 µM.
`C[C@H](c1ccccc1)N(CC(=O)N(CCN)CC(=O)N(CC(=O)N(CC(=O)N(CCN)CC(=O)N(CC(=O)N(CC(=O)N(CCN)CC(=O)N(CC(=O)N(CC(N)=O)[C@@H](C)c1ccccc1)[C@@H](C)c1ccccc1)[C@H](C)c1ccccc1)[C@@H](C)c1ccccc1)[C@H](C)c1ccccc1)[C@@H](C)c1ccccc1)C(=O)CN(C(=O)CNCCN)[C@H](C)c1ccccc1` (stereo in doubt): the EC50 was 7 µM in data set [1] and 17 µM in data set [2]. Moreover, the ED50 in data set [3] is >5 µM. For the same compound, the CC50 at 24 h in data set [4] stood at 3 µM.
The matching figures for `C[C@@H]1[C@H](O)[C@@H](C)/C=C/C=C/C=C/C=C/C=C/C=C/C=C/[C@H](O[C@@H]2O[C@H](C)[C@@H](O)[C@H](N)[C@@H]2O)C[C@@H]2O[C@](O)(C[C@@H](O)C[C@@H](O)[C@H](O)CC[C@@H](O)C[C@@H](O)CC(=O)O[C@H]1C)C[C@H](O)[C@H]2C(=O)O` [AMPHOTERICIN B]: < 2 µM, < 2 µM, 0.195 µM and > 5 µM.

For the origin of these results see ChEMBL document CHEMBL3817808, “Enlarging the chemical space of anti-leishmanials: a structureactivity relationship study of peptoids against Leishmania mexicana, a causative agent of cutaneous leishmaniasis” (Medchemcomm, 2016).
